Assay results reported in patent publication US20150018301A1, “LRRK-2-Mediated Neuronal Toxicity” (THE JOHNS HOPKINS UNIVERSITY, priority 2009, published 2015).

Columns and labels:
LRRK2 WT [1] = molecular target: T1, LRRK2 WT (Homo sapiens, UniProt Q5S007); test: In vitro kinase assay: LRRK2-mediated MBP phosphorylation; assay type: biochemical; details: for MBP phosphorylation Average ± SEM: compound 16 μM, 30° C., 15 min, normalized to absence of compound, mean ± S.E.M. of three experiments
LRRK2 WT [2] = molecular target: T1, LRRK2 WT; test: In vitro kinase assay: LRRK2 autophosphorylation; assay type: biochemical; details: for LRRK2 autophosphorylation Average ± SEM: compound 16 μM, phosphorylation normalized to absence of compound, mean ± S.E.M. of three experiments

T1 sequence (Q5S007 whole entry): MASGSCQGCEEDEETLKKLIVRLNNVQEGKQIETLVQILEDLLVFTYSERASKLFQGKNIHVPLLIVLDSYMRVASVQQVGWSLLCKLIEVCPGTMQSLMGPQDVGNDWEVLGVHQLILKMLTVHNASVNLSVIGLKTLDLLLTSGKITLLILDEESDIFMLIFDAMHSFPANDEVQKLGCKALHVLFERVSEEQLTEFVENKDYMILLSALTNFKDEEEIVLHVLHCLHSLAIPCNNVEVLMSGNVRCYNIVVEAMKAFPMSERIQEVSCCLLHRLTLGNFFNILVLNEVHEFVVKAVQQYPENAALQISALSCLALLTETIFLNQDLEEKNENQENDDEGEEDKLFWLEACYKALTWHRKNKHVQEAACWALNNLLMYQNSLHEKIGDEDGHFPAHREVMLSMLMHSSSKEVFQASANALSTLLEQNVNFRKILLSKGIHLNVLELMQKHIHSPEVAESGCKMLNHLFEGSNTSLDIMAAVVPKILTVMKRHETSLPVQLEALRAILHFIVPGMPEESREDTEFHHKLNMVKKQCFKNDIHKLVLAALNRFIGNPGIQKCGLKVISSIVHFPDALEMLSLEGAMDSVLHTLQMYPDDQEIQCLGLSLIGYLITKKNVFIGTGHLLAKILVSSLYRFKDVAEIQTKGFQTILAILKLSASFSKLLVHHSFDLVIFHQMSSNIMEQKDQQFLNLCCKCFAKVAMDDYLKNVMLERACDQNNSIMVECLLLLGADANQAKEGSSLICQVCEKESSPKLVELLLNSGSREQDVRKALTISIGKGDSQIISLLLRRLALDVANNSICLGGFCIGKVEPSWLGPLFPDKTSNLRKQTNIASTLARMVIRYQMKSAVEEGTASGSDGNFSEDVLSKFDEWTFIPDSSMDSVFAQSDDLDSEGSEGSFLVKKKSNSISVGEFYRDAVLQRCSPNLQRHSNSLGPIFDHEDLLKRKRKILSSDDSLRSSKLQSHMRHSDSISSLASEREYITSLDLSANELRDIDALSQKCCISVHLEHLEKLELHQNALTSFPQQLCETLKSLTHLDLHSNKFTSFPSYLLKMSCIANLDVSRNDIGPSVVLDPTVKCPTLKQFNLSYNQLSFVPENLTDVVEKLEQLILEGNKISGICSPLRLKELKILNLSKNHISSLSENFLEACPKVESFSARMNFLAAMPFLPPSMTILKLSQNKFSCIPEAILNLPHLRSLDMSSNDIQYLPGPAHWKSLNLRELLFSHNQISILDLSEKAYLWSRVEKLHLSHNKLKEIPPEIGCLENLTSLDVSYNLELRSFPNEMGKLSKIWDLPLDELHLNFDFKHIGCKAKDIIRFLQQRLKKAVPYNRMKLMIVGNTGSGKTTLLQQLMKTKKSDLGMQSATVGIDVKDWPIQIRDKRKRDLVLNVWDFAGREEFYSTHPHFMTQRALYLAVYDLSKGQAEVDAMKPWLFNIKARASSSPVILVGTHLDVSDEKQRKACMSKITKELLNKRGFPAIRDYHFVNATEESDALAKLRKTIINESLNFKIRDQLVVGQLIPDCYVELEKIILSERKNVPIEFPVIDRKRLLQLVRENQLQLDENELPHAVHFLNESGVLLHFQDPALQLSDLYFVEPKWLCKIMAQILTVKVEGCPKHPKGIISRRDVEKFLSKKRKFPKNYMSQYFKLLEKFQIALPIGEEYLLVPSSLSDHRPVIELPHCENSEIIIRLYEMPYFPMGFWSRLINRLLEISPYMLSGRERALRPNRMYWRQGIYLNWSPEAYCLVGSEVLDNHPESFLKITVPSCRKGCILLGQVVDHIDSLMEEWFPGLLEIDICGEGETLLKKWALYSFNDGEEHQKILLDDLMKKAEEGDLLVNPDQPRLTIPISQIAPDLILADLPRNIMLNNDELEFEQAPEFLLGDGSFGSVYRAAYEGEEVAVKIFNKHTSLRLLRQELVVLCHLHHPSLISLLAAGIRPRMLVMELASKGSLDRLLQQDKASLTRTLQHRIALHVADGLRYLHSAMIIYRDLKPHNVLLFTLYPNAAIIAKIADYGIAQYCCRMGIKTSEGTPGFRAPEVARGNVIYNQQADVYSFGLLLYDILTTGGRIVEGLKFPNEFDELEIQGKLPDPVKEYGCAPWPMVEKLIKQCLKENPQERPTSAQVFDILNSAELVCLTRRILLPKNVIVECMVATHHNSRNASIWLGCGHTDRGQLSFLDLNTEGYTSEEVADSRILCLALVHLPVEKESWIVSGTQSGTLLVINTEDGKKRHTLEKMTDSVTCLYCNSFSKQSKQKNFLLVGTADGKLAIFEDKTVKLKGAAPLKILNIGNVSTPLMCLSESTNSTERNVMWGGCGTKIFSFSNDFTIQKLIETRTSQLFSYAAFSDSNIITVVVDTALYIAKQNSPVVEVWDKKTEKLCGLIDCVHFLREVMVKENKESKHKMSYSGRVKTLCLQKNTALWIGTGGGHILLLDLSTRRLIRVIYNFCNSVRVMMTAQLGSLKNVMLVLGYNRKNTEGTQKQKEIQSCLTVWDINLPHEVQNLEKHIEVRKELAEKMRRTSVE

Row | Compound | MBP phosphorylation Average ± SEM (LRRK2 WT [1]) | LRRK2 autophosphorylation Average ± SEM (LRRK2 WT [2]) | effect on LRRK2-mediated phosphorylation of MBP (LRRK2 WT [1]; screen at 16 μM) | effect on LRRK2 autophosphorylation (LRRK2 WT [2]; screen at 16 μM)
1 | COc1cccc(-c2cc(=O)c3ccccc3o2)c1N [Inhibitor 1] | 77.5 ± 55.0 % of control | 77.9 ± 30.6 % of control |  | 
2 | N#CC(=C(/N)Sc1ccccc1N)/C(C#N)=C(\N)Sc1ccccc1N [Inhibitor 2] | 101.0 ± 105 % of control | 86.9 ± 10.3 % of control |  | 
3 | C[S+]([O-])c1ccc(-c2nc(-c3ccc(F)cc3)c(-c3ccncc3)[nH]2)cc1 (stereo not shown) [Inhibitor 3] | 105.9 ± 15.9 % of control | 75.1 ± 7.8 % of control |  | 
4 | CC1CNCCN1S(=O)(=O)c1cccc2cnccc12 (stereo not shown) [Inhibitor 4] | 88.0 ± 26.4 % of control | 80.3 ± 8.2 % of control |  | 
5 | NCCNS(=O)(=O)c1cccc2cnccc12 [Inhibitor 5] | 58.3 ± 22.9 % of control | 53.8 ± 34.5 % of control |  | 
6 | CN[C@@H]1C[C@H]2O[C@@](C)([C@@H]1OC)n1c3ccccc3c3c4c(c5c6ccccc6n2c5c31)C(=O)NC4 [Inhibitor 6, Staurosporine, reference compound] | 9.2 ± 6.4 % of control | 1.9 ± 1.0 % of control | substantially inhibited | substantially inhibited
7 | N#C/C(=C\c1ccc(O)c(O)c1)C(=O)Nc1ccccc1 [Inhibitor 7] | 75.6 ± 56.9 % of control | 56.1 ± 27.6 % of control |  | 
8 | COc1cc(/C=C(\C#N)C(N)=O)cc(CSc2nc3ccccc3s2)c1O [Inhibitor 8] | 81.5 ± 17.6 % of control | 81.7 ± 27.1 % of control |  | 
9 | O=C(O)c1cc(N(Cc2ccccc2O)Cc2cc(O)ccc2O)ccc1O [Inhibitor 9] | 65.2 ± 35.5 % of control | 84.3 ± 21.1 % of control |  | 
10 | N#C/C(=C/c1cc(Cl)cc(Cl)c1)c1cccnc1 [Inhibitor 10] | 45.2 ± 46.1 % of control | 90.8 ± 30.7 % of control |  | 
11 | N#CC(C#N)=Cc1ccc(O)c(O)c1 [Inhibitor 11] | 55.5 ± 56.5 % of control | 66.9 ± 2.0 % of control |  | 
12 | N#CC(C#N)=Cc1cc(O)c(O)c(O)c1 [Inhibitor 12] | 65.9 ± 31.4 % of control | 62.8 ± 15.8 % of control |  | 
13 | N#C/C(=C\c1ccc(O)c(O)c1)C(N)=O [Inhibitor 13] | 117.3 ± 18.5 % of control | 81.0 ± 13.4 % of control |  | 
14 | N#C/C(=C\c1ccc(O)c(O)c1)C(N)=S [Inhibitor 14] | 110.5 ± 29.3 % of control | 80.5 ± 32.2 % of control |  | 
15 | N#CC(C#N)=C(N)/C(C#N)=C/c1cc(O)c(O)c(O)c1 [Inhibitor 15] | 105.1 ± 19.1 % of control | 79 ± 49.6 % of control |  | 
16 | N#CC(C#N)=Cc1cc(O)c(O)c([N+](=O)[O-])c1 [Inhibitor 17] | 116.0 ± 9.8 % of control | 89 ± 54.9 % of control |  | 
17 | COc1cc2ncnc(Nc3cccc(Cl)c3)c2cc1OC [Inhibitor 18] | 110.0 ± 44.0 % of control | 63.7 ± 28.0 % of control |  | 
18 | Cc1cc2ncc(-c3ccccc3)nc2cc1C [Inhibitor 19] | 104.3 ± 14.6 % of control | 89.4 ± 12.5 % of control |  | 
19 | CC(C)(C)c1cc(C=C(C#N)C#N)cc(C(C)(C)C)c1O [Inhibitor 20] | 120.7 ± 29.4 % of control | 109.0 ± 19.7 % of control |  | 
20 | O=P(O)(O)CCc1ccc2ccccc2c1O [Inhibitor 21] | 138.2 ± 36.9 % of control | 120.8 ± 54.1 % of control |  | 
21 | Oc1cc(O)cc(/C=C/c2ccc(O)c(O)c2)c1 [Inhibitor 23] | 93.0 ± 17.8 % of control | 87 ± 38.6 % of control |  | 
22 | Cc1ccc(-c2nn(C(C)(C)C)c3ncnc(N)c23)cc1 [Inhibitor 24] | 103.6 ± 60.1 % of control | 88.3 ± 17.1 % of control |  | 

Row | Compound | MBP phosphorylation Average ± SEM (LRRK2 WT [1]) | LRRK2 autophosphorylation Average ± SEM (LRRK2 WT [2]) | effect on LRRK2-mediated phosphorylation of MBP (LRRK2 WT [1]; screen at 16 μM) | effect on LRRK2 autophosphorylation (LRRK2 WT [2]; screen at 16 μM)
23 | N#C/C(=C\c1ccc(O)c(O)c1)C(=O)NCc1ccccc1 [Inhibitor 25] | 82.9 ± 17.7 % of control | 78.5 ± 5.8 % of control |  | 
24 | N#CC(C#N)=Cc1ccc([N+](=O)[O-])c(O)c1 [Inhibitor 26] | 114.3 ± 14.1 % of control | 82.3 ± 10.5 % of control |  | 
25 | N#CC(C#N)=C(N)/C(C#N)=C/c1ccc2[nH]ccc2c1 [Inhibitor 27] | 79.5 ± 17.8 % of control | 73.2 ± 8.8 % of control |  | 
26 | CC(C)(C)c1cc(/C=C(\C#N)C(N)=S)cc(C(C)(C)C)c1O [Inhibitor 28] | 76.7 ± 4.5 % of control | 69.8 ± 12.0 % of control |  | 
27 | O=c1cc(N2CCOCC2)oc2c(-c3ccccc3)cccc12 [Inhibitor 29] | 75.5 ± 3.1 % of control | 79.3 ± 3.6 % of control |  | 
28 | COC[C@H]1OC(=O)c2coc3c2[C@@]1(C)C1=C(C3=O)[C@@H]2CCC(=O)[C@@]2(C)C[C@H]1OC(C)=O [Inhibitor 30] | 66.8 ± 29.1 % of control | 83.0 ± 23.6 % of control |  | 
29 | Cc1cc(O)c2c(=O)c3c(O)cc(O)c4c5c(O)cc(O)c6c(=O)c7c(O)cc(C)c8c1c2c(c34)c(c78)c65 [Inhibitor 32] | 160.9 ± 12 % of control | 57.4 ± 30.1 % of control |  | 
30 | O=S(=O)(NCCNC/C=C/c1ccc(Br)cc1)c1cccc2cnccc12 [Inhibitor 35] | 85.3 ± 54.2 % of control | 90.8 ± 2.5 % of control |  | 
31 | CNCCNS(=O)(=O)c1cccc2cnccc12 [Inhibitor 36] | 50.2 ± 29.4 % of control | 80.9 ± 3.0 % of control |  | 
32 | N=C(N)NCCNS(=O)(=O)c1cccc2cnccc12 [Inhibitor 37] | 106.7 ± 25.4 % of control | 81.1 ± 17.3 % of control |  | 
33 | O=S(=O)(c1cccc2cnccc12)N1CCCNCC1 [Inhibitor 38] | 120.4 ± 64.7 % of control | 84.3 ± 21.9 % of control |  | 
34 | O=C(O)c1cc(NCc2cc(O)ccc2O)ccc1O [Inhibitor 39, 2-hydroxy-5-(2,5-dihydroxybenzyl-amino) benzoic acid] | 148.9 ± 71.4 % of control | 103.0 ± 4.4 % of control |  | 
35 | CN([C@@H](Cc1ccc(OS(=O)(=O)c2cccc3cnccc23)cc1)C(=O)N1CCN(c2ccccc2)CC1)S(=O)(=O)c1cccc2cnccc12 [Inhibitor 40] | 125.2 ± 68.8 % of control | 83.1 ± 22.1 % of control |  | 
36 | COc1ccc(S(=O)(=O)N(CCO)c2ccccc2CN(C)C/C=C/c2ccc(Cl)cc2)cc1 [Inhibitor 41] | 164.7 ± 40.0 % of control | 104.6 ± 26.6 % of control |  | 
37 | Cl.O=S(=O)(c1cccc2c(I)cccc12)N1CCCNCC1 [Inhibitor 42] | 89.4 ± 71.9 % of control | 87.3 ± 14.8 % of control |  | 
38 | O=S(=O)(c1cccc2c(Cl)cccc12)N1CCCNCC1 [Inhibitor 43] | 120.2 ± 39.6 % of control | 71.6 ± 2.1 % of control |  | 
39 | Nc1ncc2[nH]cnc2n1 [Inhibitor 44, 2-aminopurine] | 77.2 ± 86.4 % of control | 95.3 ± 5.9 % of control |  | 
40 | CC(C)n1cnc2c(NCc3ccccc3)nc(NCCO)nc21 [Inhibitor 45] | 111.7 ± 69.7 % of control | 56.2 ± 30.8 % of control |  | 
41 | Cn1cnc2c(NCc3ccccc3)nc(NCCO)nc21 [Inhibitor 46] | 125.3 ± 45.6 % of control | 72.5 ± 2.1 % of control |  | 
42 | CC[C@@H](CO)Nc1nc(NCc2ccccc2)c2ncn(C(C)C)c2n1 [Inhibitor 48] | 100.1 ± 41.5 % of control | 69.4 ± 30.1 % of control |  | 
43 | C/C(O)=C(\C#N)C(=O)Nc1cc(Br)ccc1Br [Inhibitor 50] | 138.8 ± 53.5 % of control | 66.8 ± 14.2 % of control |  | 
